Converted amounts (≈) assume the structure as drawn. The source made the active and inactive calls. The calls are words filed in the database; no cut-off is given here.
Experiments:
[1] = test system: Staphylococcus auricularis; assay: Antibacterial activity against methicillin resistant coagulase-negative Staphylococcus auricularis clinical isolate assessed as susceptibility level by broth microdilution method; assay type: functional
[2] = test system: Staphylococcus haemolyticus; assay: Antibacterial activity against methicillin resistant coagulase-negative Staphylococcus haemolyticus clinical isolate assessed as susceptibility level by broth microdilution method; assay type: functional
[3] = test system: Staphylococcus hominis subsp. novobiosepticus; assay: (§1) Antibacterial activity against methicillin resistant coagulase-negative Staphylococcus hominis subsp. novobiosepticus clinical isolate assessed as susceptibility level by broth microdilution method; assay type: functional
[4] = test system: Staphylococcus saprophyticus; assay: Antibacterial activity against methicillin resistant coagulase-negative Staphylococcus saprophyticus clinical isolate by broth microdilution method; assay type: functional
[5] = test system: Staphylococcus auricularis; assay: Antibacterial activity against methicillin resistant coagulase-negative Staphylococcus auricularis clinical isolate by broth microdilution method; assay type: functional
[6] = test system: Staphylococcus epidermidis; assay: Antibacterial activity against methicillin resistant Staphylococcus epidermidis clinical isolate by broth microdilution method; assay type: functional
[7] = test system: Staphylococcus hominis subsp. novobiosepticus; assay: (§2) Antibacterial activity against methicillin resistant coagulase-negative Staphylococcus hominis subsp. novobiosepticus clinical isolate by broth microdilution method; assay type: functional
Staphylococcus capitis [8] = assay: Antibacterial activity against methicillin resistant coagulase-negative Staphylococcus capitis clinical isolate assessed as susceptibility level by broth microdilution method; assay type: functional
Staphylococcus aureus [9] = assay: Antibacterial activity against methicillin resistant Staphylococcus aureus clinical isolate by broth microdilution method; assay type: functional
[10] = test system: Staphylococcus epidermidis; assay: Antibacterial activity against methicillin resistant Staphylococcus epidermidis clinical isolate assessed as susceptibility level by broth microdilution method; assay type: functional
[11] = test system: Staphylococcus saprophyticus; assay: Antibacterial activity against methicillin resistant coagulase-negative Staphylococcus saprophyticus clinical isolate assessed as susceptibility level by broth microdilution method; assay type: functional
[12] = test system: Staphylococcus haemolyticus; assay: Antibacterial activity against methicillin resistant coagulase-negative Staphylococcus haemolyticus clinical isolate by broth microdilution method; assay type: functional
Staphylococcus aureus [13] = assay: Antibacterial activity against methicillin resistant Staphylococcus aureus clinical isolate assessed as susceptibility level by broth microdilution method; assay type: functional
Staphylococcus capitis [14] = assay: Antibacterial activity against methicillin resistant coagulase-negative Staphylococcus capitis clinical isolate by broth microdilution method; assay type: functional
Streptococcus pyogenes [15] = assay: Antibacterial activity against Streptococcus pyogenes group A clinical isolate by broth microdilution method; assay type: functional
Enterococcus faecium [16] = assay: Antibacterial activity against vancomycin resistant Enterococcus faecium VanB clinical isolate assessed as susceptibility level by broth microdilution method; assay type: functional
Streptococcus viridans [17] = assay: Antibacterial activity against Streptococcus viridans clinical isolate by broth microdilution method; assay type: functional
Enterococcus faecalis [18] = assay: Antibacterial activity against vancomycin resistant Enterococcus faecalis VanB clinical isolate by broth microdilution method; assay type: functional
Streptococcus pyogenes [19] = assay: Antibacterial activity against Streptococcus pyogenes group A clinical isolate assessed as susceptibility level by broth microdilution method; assay type: functional
Streptococcus mitis [20] = assay: Antibacterial activity against Streptococcus mitis clinical isolate assessed as susceptibility level by broth microdilution method; assay type: functional
[21] = test system: Streptococcus constellatus; assay: Antibacterial activity against Streptococcus constellatus clinical isolate assessed as susceptibility level by broth microdilution method; assay type: functional
[22] = as §1; assay type: functional
Streptococcus pneumoniae [23] = assay: Antibacterial activity against multidrug-resistant Streptococcus pneumoniae clinical isolate by broth microdilution method; assay type: functional
Streptococcus pneumoniae [24] = assay: Antibacterial activity against multidrug resistant Streptococcus pneumoniae MED 1090 by broth microdilution method; assay type: functional
Enterococcus faecalis [25] = test system: Enterococcus faecalis
Streptococcus viridans [26] = assay: Antibacterial activity against Streptococcus viridans clinical isolate assessed as susceptibility level by broth microdilution method; assay type: functional
Streptococcus pneumoniae [27] = assay: Antibacterial activity against penicillin intermediate Streptococcus pneumoniae clinical isolate by broth microdilution method; assay type: functional
[28] = as §2; assay type: functional
Streptococcus mitis [29] = assay: Antibacterial activity against Streptococcus mitis clinical isolate by broth microdilution method; assay type: functional
Streptococcus agalactiae [30] = assay: Antibacterial activity against Streptococcus agalactiae group B clinical isolate by broth microdilution method; assay type: functional
Streptococcus pneumoniae [31] = assay: Antibacterial activity against multidrug-resistant Streptococcus pneumoniae clinical isolate assessed as susceptibility level by broth microdilution method; assay type: functional
Enterococcus faecium [32] = assay: Antibacterial activity against vancomycin resistant Enterococcus faecium VanA clinical isolate by broth microdilution method; assay type: functional
Streptococcus pneumoniae [33] = assay: Antibacterial activity against penicillin resistant Streptococcus pneumoniae clinical isolate assessed as susceptibility level by broth microdilution method; assay type: functional
Enterococcus faecium [34] = assay: Antibacterial activity against vancomycin resistant Enterococcus faecium VanB clinical isolate by broth microdilution method; assay type: functional
Streptococcus oralis [35] = assay: Antibacterial activity against Streptococcus oralis clinical isolate assessed as susceptibility level by broth microdilution method; assay type: functional
Streptococcus agalactiae [36] = assay: Antibacterial activity against Streptococcus agalactiae MED 2038 by broth microdilution method; assay type: functional
Streptococcus pneumoniae [37] = assay: Antibacterial activity against penicillin intermediate Streptococcus pneumoniae clinical isolate assessed as susceptibility level by broth microdilution method; assay type: functional
Streptococcus oralis [38] = assay: Antibacterial activity against Streptococcus oralis clinical isolate by broth microdilution method; assay type: functional
Enterococcus faecalis [39] = assay: Antibacterial activity against vancomycin resistant Enterococcus faecalis VanB clinical isolate assessed as susceptibility level by broth microdilution method; assay type: functional
Enterococcus faecalis [40] = assay: Antibacterial activity against vancomycin resistant Enterococcus faecalis VanA clinical isolate by broth microdilution method; assay type: functional
[41] = test system: Streptococcus intermedius; assay: Antibacterial activity against Streptococcus intermedius clinical isolate assessed as susceptibility level by broth microdilution method; assay type: functional
Enterococcus faecium [42] = assay: Antibacterial activity against vancomycin resistant Enterococcus faecium VanA clinical isolate assessed as susceptibility level by broth microdilution method; assay type: functional
Streptococcus pneumoniae [43] = assay: Antibacterial activity against penicillin resistant Streptococcus pneumoniae clinical isolate by broth microdilution method; assay type: functional
Streptococcus agalactiae [44] = assay: Antibacterial activity against Streptococcus agalactiae group B clinical isolate assessed as susceptibility level by broth microdilution method; assay type: functional
[45] = test system: Streptococcus intermedius; assay: Antibacterial activity against Streptococcus intermedius clinical isolate by broth microdilution method; assay type: functional
Streptococcus pyogenes [46] = assay: Antibacterial activity against Streptococcus pyogenes MED 2040 by broth microdilution method; assay type: functional
Enterococcus faecalis [47] = assay: Antibacterial activity against vancomycin resistant Enterococcus faecalis VanA clinical isolate assessed as susceptibility level by broth microdilution method; assay type: functional
[48] = test system: Streptococcus constellatus; assay: Antibacterial activity against Streptococcus constellatus clinical isolate by broth microdilution method; assay type: functional

Compound: GENTAMICIN
- Activity [1]: 29%
- Activity [2]: 29%
- Activity [3]: 29%
- MIC50 [4]: 16 µg/mL
- MIC90 [4]: > 16 µg/mL
- MIC50 [5]: 16 µg/mL
- MIC90 [5]: > 16 µg/mL
- MIC50 [6]: 16 µg/mL
- MIC90 [6]: > 16 µg/mL
- MIC50 [7]: 16 µg/mL
- MIC90 [7]: > 16 µg/mL
- Activity (Staphylococcus capitis [8]): 29%
- Activity (Staphylococcus aureus [9]): 97%
- MIC50 (Staphylococcus aureus [9]): 0.5 µg/mL
- MIC90 (Staphylococcus aureus [9]): 2 µg/mL
- Activity [10]: 35%
- Activity [11]: 29%
- MIC50 [12]: 16 µg/mL
- MIC90 [12]: > 16 µg/mL
- Activity (Staphylococcus aureus [13]): 97%
- MIC50 (Staphylococcus capitis [14]): 16 µg/mL
- MIC90 (Staphylococcus capitis [14]): > 16 µg/mL

Compound: CN[C@H](CC(C)C)C(=O)N[C@H]1C(=O)N[C@@H](CC(N)=O)C(=O)N[C@H]2C(=O)N[C@H]3C(=O)N[C@H](C(=O)N[C@H](C(=O)O)c4cc(O)cc(O)c4-c4cc3ccc4O)[C@H](O)c3ccc(c(Cl)c3)Oc3cc2cc(c3O[C@@H]2O[C@H](CO)[C@@H](O)[C@H](O)[C@H]2O[C@H]2C[C@](C)(N)[C@H](O)[C@H](C)O2)Oc2ccc(cc2Cl)[C@H]1O [VANCOMYCIN]
- MIC50 (Streptococcus pyogenes [15]): 0.25 µg/mL (≈ 0.173 µM)
- MIC90 (Streptococcus pyogenes [15]): 0.5 µg/mL (≈ 0.345 µM)
- Activity (Enterococcus faecium [16]): 0%
- MIC (Streptococcus viridans [17]): 0.25 µg/mL (≈ 0.173 µM)
- MIC50 (Streptococcus viridans [17]): inactive
- MIC90 (Streptococcus viridans [17]): inactive
- Activity [1]: 100%
- MIC (Enterococcus faecalis [18]): 32 µg/mL (≈ 22.1 µM)
- Activity (Streptococcus pyogenes [19]): 98%
- Activity (Streptococcus mitis [20]): 100%
- Activity [21]: 100%
- Activity [2]: 100%
- Activity [22]: 100%
- MIC50 [4]: 2 µg/mL (≈ 1.38 µM)
- MIC90 [4]: 2 µg/mL (≈ 1.38 µM)
- MIC50 (Streptococcus pneumoniae [23]): 0.25 µg/mL (≈ 0.173 µM)
- MIC90 (Streptococcus pneumoniae [23]): 0.25 µg/mL (≈ 0.173 µM)
- MIC50 [5]: 2 µg/mL (≈ 1.38 µM)
- MIC90 [5]: 2 µg/mL (≈ 1.38 µM)
- MIC (Streptococcus pneumoniae [24]): 0.25 µg/mL (≈ 0.173 µM)
- MIC50 (Enterococcus faecalis [25]): inactive
- MIC90 (Enterococcus faecalis [25]): inactive
- Activity (Streptococcus viridans [26]): 100%
- MIC [6]: 0.5 µg/mL (≈ 0.345 µM)
- MIC50 (Streptococcus pneumoniae [27]): 0.5 µg/mL (≈ 0.345 µM)
- MIC90 (Streptococcus pneumoniae [27]): 0.5 µg/mL (≈ 0.345 µM)
- MIC50 [28]: 2 µg/mL (≈ 1.38 µM)
- MIC90 [28]: 2 µg/mL (≈ 1.38 µM)
- MIC (Streptococcus mitis [29]): 0.25 µg/mL (≈ 0.173 µM)
- MIC50 (Streptococcus mitis [29]): inactive
- MIC90 (Streptococcus mitis [29]): inactive
- Activity (Staphylococcus capitis [8]): 100%
- MIC (Streptococcus agalactiae [30]): 0.25 µg/mL (≈ 0.173 µM)
- MIC50 (Streptococcus agalactiae [30]): 0.25 µg/mL (≈ 0.173 µM)
- MIC90 (Streptococcus agalactiae [30]): 0.5 µg/mL (≈ 0.345 µM)
- Activity (Streptococcus pneumoniae [31]): 100%
- MIC50 (Enterococcus faecium [32]): 512 µg/mL (≈ 353 µM)
- MIC90 (Enterococcus faecium [32]): > 512 µg/mL
- Activity (Staphylococcus aureus [9]): 100%
- MIC50 (Staphylococcus aureus [9]; Staphylococcus aureus): 0.5 µg/mL (≈ 0.345 µM)
- MIC90 (Staphylococcus aureus [9]; Staphylococcus aureus): 1 µg/mL (≈ 0.69 µM)
- Activity [10]: 100%
- Activity (Streptococcus pneumoniae [33]): 100%
- MIC50 (Enterococcus faecium [34]): 512 µg/mL (≈ 353 µM)
- MIC90 (Enterococcus faecium [34]): > 512 µg/mL
- Activity (Streptococcus oralis [35]): 100%
- MIC (Streptococcus agalactiae [36]): 0.25 µg/mL (≈ 0.173 µM)
- Activity (Streptococcus pneumoniae [37]): 100%
- MIC (Streptococcus oralis [38]): 0.25 µg/mL (≈ 0.173 µM)
- MIC50 (Streptococcus oralis [38]): inactive
- MIC90 (Streptococcus oralis [38]): inactive
- Activity [11]: 100%
- MIC50 [12]: 2 µg/mL (≈ 1.38 µM)
- MIC90 [12]: 2 µg/mL (≈ 1.38 µM)
- Activity (Enterococcus faecalis [39]): 0%
- MIC50 (Enterococcus faecalis [40]): 512 µg/mL (≈ 353 µM)
- MIC90 (Enterococcus faecalis [40]): > 512 µg/mL
- Activity [41]: 100%
- Activity (Enterococcus faecium [42]): 0%
- MIC50 (Streptococcus pneumoniae [43]): 0.25 µg/mL (≈ 0.173 µM)
- MIC90 (Streptococcus pneumoniae [43]): 0.25 µg/mL (≈ 0.173 µM)
- Activity (Streptococcus agalactiae [44]): 100%
- MIC [45]: 0.25 µg/mL (≈ 0.173 µM)
- MIC50 [45]: inactive
- MIC90 [45]: inactive
- MIC (Streptococcus pyogenes [46]): 0.25 µg/mL (≈ 0.173 µM)
- Percent of isolates susceptible (Enterococcus faecalis [47]): 0%
- Activity (Staphylococcus aureus [13]): 100%
- MIC [48]: 0.25 µg/mL (≈ 0.173 µM)
- MIC50 [48]: inactive
- MIC90 [48]: inactive
- MIC50 (Staphylococcus capitis [14]): 2 µg/mL (≈ 1.38 µM)
- MIC90 (Staphylococcus capitis [14]): 2 µg/mL (≈ 1.38 µM)

— ChEMBL document CHEMBL1275440, “In vitro activity of telavancin against resistant gram-positive bacteria” (2008)
